Measured values from PMC8296573, “Synthesis and Biological Evaluation of Fingolimod Derivatives as Antibacterial Agents” (ACS Omega, 2021).
In brackets after ≈: the same amount, converted by molar mass. Where two headings read alike, the source gives them in different places.

Experiments:
[1] = system: A. baumannii NCTC 13423; assay: Antibacterial activity, pre-exposure; format: cell-based, Acinetobacter baumannii; conditions: for Average inhibition %, biofilms viability / Average inhibition %, planktonic cells viability / inhibition at 10 µM / inhibition at 15 µM / inhibition at 25 µM / inhibition at 50 µM: A. baumannii NCTC 13423, pre-exposure, ± SD; for inhibition at 10 µM / inhibition at 15 µM / inhibition at 25 µM / inhibition at 50 µM / MIC: Acinetobacter baumannii, NCTC13423
Procedure, shortened: (§1)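 Compounds in DMSO were plated before bacteria were added (pre-exposure) and incubated 18 h aerobically at 37 °C with shaking. Planktonic cells were read by OD and resazurin fluorescence (20 μM final; ex 560/em 590 nm). Biofilms were read by resazurin, then crystal violet (A595) for total biomass.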

[2] = system: S. aureus ATCC 25923; assay: Antibacterial activity, pre-exposure (planktonic cells and biofilm formation); format: cell-based, Staphylococcus aureus; conditions: for MIC / inhibition at 5 µM / inhibition at 10 µM / inhibition at 15 µM / inhibition at 25 µM: Staphylococcus aureus, ATCC25923; for inhibition at 5 µM / inhibition at 10 µM / inhibition at 15 µM / inhibition at 25 µM / Average inhibition %, biofilms viability / Average inhibition %, planktonic cells viability: pre-exposure, ± SD
Procedure, shortened: as §1

[3] = system: S. aureus ATCC 12598; assay: Antibacterial activity, pre-exposure; format: cell-based, Staphylococcus aureus; conditions: S. aureus ATCC 12598, pre-exposure, ± SD
Procedure, shortened: as §1

[4] = 10 µM, read-out: Average inhibition %, biofilms biomass
[5] = 10 µM, read-out: Average inhibition %, planktonic cells turbidity
[6] = 15 µM, read-out: Average inhibition %, biofilms biomass
[7] = 15 µM, read-out: Average inhibition %, planktonic cells turbidity
[8] = 25 µM, read-out: Average inhibition %, biofilms biomass
[9] = 25 µM, read-out: Average inhibition %, planktonic cells turbidity

## CCCCCCCCc1ccc2ccc(CC(N)(CO)CO)nc2c1 [Compound 82, 2-Amino-2-[(7-octylquinolin-2-yl)methyl]propane-1,3-diol]
[1]; 10 µM
  Average inhibition %, biofilms viability: 3.9 ± 5.3%
  Average inhibition %, planktonic cells viability: 10.4 ± 9%
[1]; 15 µM
  Average inhibition %, biofilms viability: 96.5 ± 6%
  Average inhibition %, planktonic cells viability: 99.5 ± 0.5%
[1]; 25 µM
  Average inhibition %, biofilms viability: 100.7 ± 1.1%
  Average inhibition %, planktonic cells viability: 99.7 ± 0%
[1]; 50 µM
  Average inhibition %, biofilms viability: 99 ± 1.3%
  Average inhibition %, planktonic cells viability: 99.6 ± 0%
[1]; [4]
  inhibition at 10 µM: 13.3 ± 12.9%
[1]; [5]
  inhibition at 10 µM: 1 ± 1.4%
[1]; [6]
  inhibition at 15 µM: 74.7 ± 11.1%
[1]; [7]
  inhibition at 15 µM: 98.3 ± 2.5%
[1]; [8]
  inhibition at 25 µM: 88.6 ± 7.8%
[1]; [9]
  inhibition at 25 µM: 99.8%
[1]; 50 µM, read-out: Average inhibition %, biofilms biomass
  inhibition at 50 µM: 82.6 ± 12.7%
[1]; 50 µM, read-out: Average inhibition %, planktonic cells turbidity
  inhibition at 50 µM: 99.4 ± 0.1%
[1]; pre-exposure, Inactive = no activity up to 50 μM, > = some inhibition but no MIC reached, read-out: MIC A. baumannii NCTC 13423
  MIC: 15 µM (≈ 5.17 µg/mL)
[1]; supplementary molecular formula strings sheet, read-out: MIC (A. baumannii)
  MIC: 15 µM (≈ 5.17 µg/mL)
[2]; lowest concentration with no visible growth (>90% inhibition of turbidity and viability of planktonic cells), 18 h, read-out: MIC S. aureus ATCC 25923
  MIC: 15 µM (≈ 5.17 µg/mL)
[2]; 5 µM, read-out: Average inhibition %, biofilms biomass
  inhibition at 5 µM: 41.7 ± 5.1%
[2]; 5 µM, read-out: Average inhibition %, planktonic cells turbidity
  inhibition at 5 µM: 32.8 ± 33.4%
[2]; [4]
  inhibition at 10 µM: 67.2 ± 23.4%
[2]; [5]
  inhibition at 10 µM: 61.5 ± 33.3%
[2]; [6]
  inhibition at 15 µM: 94.4 ± 4.6%
[2]; [7]
  inhibition at 15 µM: 99.9 ± 0.1%
[2]; [8]
  inhibition at 25 µM: 93 ± 5.8%
[2]; [9]
  inhibition at 25 µM: 99.9 ± 0.1%
[2]; read-out: MIC (S. aureus)
  MIC: 15 µM (≈ 5.17 µg/mL)
[2]; lowest concentration with no visible growth (>90% inhibition of turbidity and viability of planktonic cells), 18 h
  MIC S. aureus ATCC 25923: same MIC as fingolimod
[2]; 5 µM
  Average inhibition %, biofilms viability: 34.4 ± 13.6%
  Average inhibition %, planktonic cells viability: 6.1 ± 10.6%
[2]; 10 µM
  Average inhibition %, biofilms viability: 63.5 ± 30.9%
  Average inhibition %, planktonic cells viability: 33 ± 57.1%
[2]; 15 µM
  Average inhibition %, biofilms viability: 99.7 ± 0.3%
  Average inhibition %, planktonic cells viability: 99.6 ± 0%
[2]; 25 µM
  Average inhibition %, biofilms viability: 99.7 ± 0.4%
  Average inhibition %, planktonic cells viability: 99.7 ± 0%
[3]; 5 µM
  Average inhibition %, biofilms viability: 12.2 ± 12.8%
  Average inhibition %, planktonic cells viability: 13.3 ± 5%
[3]; 10 µM
  Average inhibition %, biofilms viability: 99.1 ± 0.2%
  Average inhibition %, planktonic cells viability: 99.8 ± 0%
[3]; 15 µM
  Average inhibition %, biofilms viability: 99.5 ± 0%
  Average inhibition %, planktonic cells viability: 99.7 ± 0%
[3]; 25 µM
  Average inhibition %, biofilms viability: 99.7 ± 0.1%
